Like-named read-outs stand apart in the source and are kept apart here. Starred links: 1 amine or outer side, 2 acyl side, 3 side chain; linkers in the order of their positions; H or OH if unused. Non-standard residues stand in square brackets, D forms with d. Residues, ends and D or L forms follow the SMILES beside them. Groups on a side chain read outwards from the residue. *: point of attachment. C20 diacid = O=C(O)CCCCCCCCCCCCCCCCCCC(=O)*; γGlu = O=C(O)[C@H](CCC(=O)[*:2])N[*:1]; Nle = CCCC[C@H](N)C(=O)O; AEEA = NCCOCCOCC(=O)O; Aib = CC(C)(N)C(=O)O
Legend:
hCRHR1 = molecular target: T1, hCRHR1 (Homo sapiens, UniProt P34998); assay: HTRF cAMP assay, determination of hCRHR1 potency (peptide libraries 5 conc., purified peptides 11 conc.); format: cell-based; conditions: read-out: hCRHR1 EC50
T1 sequence (P34998 24-415): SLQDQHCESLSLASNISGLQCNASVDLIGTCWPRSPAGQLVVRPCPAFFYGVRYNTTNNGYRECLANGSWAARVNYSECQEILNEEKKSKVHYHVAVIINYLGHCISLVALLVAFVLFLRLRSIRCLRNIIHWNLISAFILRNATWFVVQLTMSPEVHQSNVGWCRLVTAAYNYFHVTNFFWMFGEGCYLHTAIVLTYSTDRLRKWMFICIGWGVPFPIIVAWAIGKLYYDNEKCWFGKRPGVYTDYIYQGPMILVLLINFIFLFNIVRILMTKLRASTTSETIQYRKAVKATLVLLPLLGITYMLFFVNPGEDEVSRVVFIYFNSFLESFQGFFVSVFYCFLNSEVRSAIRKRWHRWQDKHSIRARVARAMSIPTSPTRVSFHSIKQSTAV
Summary of the method: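 Cellular cAMP was read by time-resolved FRET between d2-labelled cAMP and cryptate anti-cAMP antibody. The cells were freshly thawed suspension CHO-K1 cells stably expressing human CRHR1.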

[1] = Chemical stability of purified peptides (RP-UHPLC main peak purity loss); format: physicochemical
Experimental: Chemical stability was tested at a concentration of approximately of 1.0 mg/ml peptide in the following vehicles: 50 mM phosphate buffer pH 7.5. Dissolved samples were incubated for at least 2 h at room temperature on a rocking table. The main peak purity at time zero (T0) was determined using reversed phase chromatography. The samples were incubated at 40°C for 14 days (T14) and 28 days (T28). The samples were analyzed with reversed phase chromatography and size exclusion chromatography.
Reversed Phase chromatography was performed on a Thermo Dionex Ultimate UHPLC system with UV detection at 215 nm) and equipped with a Kinetex column (1.7 µm, C8, 100 Å, 150 x 2.1 mm (00F-4499-AN)). Analysis was performed by gradient elution with buffer A (0.1% TFA in 95:5 H2O:acetonitrile) and buffer B (0.1% TFA in 5:95 H2O: acetonitrile) at a column temperature of 50 °C (gradient used 25-55%B over 40 min. Flowrate was 0.5 mL/min. The main peak purity was determined from the integrated chromatogram as the area under the main peak relative to the total peak area. The purity loss was calculated as the difference between the T0 and T14 time point and/or as the difference between the T0 and T28 time point.
The chemical stability of selected peptides was evaluated at varying pH's at 40° C over 28 days. Samples were prepared and analysed as described in procedure with the addition of pH adjusting samples to the targets indicated below. As a comparator,r commercially available semaglutide drug product (Ozempic®, Novo Nordisk) was included in the sample set.

[2] = pH 7.5
hCRHR2 = molecular target: T2, hCRHR2 (Homo sapiens, UniProt Q13324); assay: HTRF cAMP assay, determination of hCRHR2 potency (peptide libraries 5 conc., purified peptides 11 conc.); format: cell-based; conditions: for EC50: read-out: hCRHR2 EC50
T2 sequence (Q13324 1-411): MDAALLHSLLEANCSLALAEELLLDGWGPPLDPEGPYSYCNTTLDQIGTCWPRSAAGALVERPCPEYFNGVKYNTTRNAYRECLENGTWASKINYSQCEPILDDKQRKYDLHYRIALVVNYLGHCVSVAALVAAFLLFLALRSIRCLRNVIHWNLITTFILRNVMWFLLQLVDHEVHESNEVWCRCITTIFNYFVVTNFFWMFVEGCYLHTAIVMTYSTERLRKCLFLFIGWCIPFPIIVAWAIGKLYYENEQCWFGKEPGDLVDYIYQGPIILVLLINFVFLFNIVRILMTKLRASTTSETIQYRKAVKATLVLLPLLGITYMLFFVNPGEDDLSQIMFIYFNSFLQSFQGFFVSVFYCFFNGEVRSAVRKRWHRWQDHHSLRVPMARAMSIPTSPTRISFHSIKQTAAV
Summary of the method: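 EC50 derived by variable-slope sigmoid regression of FRET-based cAMP data; cellular cAMP displaced d2-labelled tracer from cryptate anti-cAMP antibody. Stable human CRHR2 CHO-K1 suspension cells, revived from frozen stocks just before the run.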

[3] = Thioflavin T fibril formation assay of purified peptides; format: physicochemical; set-up: key: Amyloid fibril formation detected by an increase in ThT fluorescence was denoted with "Yes"; samples without increasing ThT fluorescence hence not forming amyloid fibrils were denoted "No"
Summary of the method: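 Fibril formation read as rising ThT emission at 480 nm (450 nm excitation), 4 µM ThT, over 96 h at 40°C with alternating 5-min rest and 700 rpm shaking cycles, in triplicate. Samples were 200 µM compound in 50 mM phosphate at various pH values, or co-formulated at 200 µM in semaglutide product at pH 7.4.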

[4] = purified peptides, CHO-K1 cells stably expressing hCRHR1, cAMP HTRF
[5] = pH 7.5, 40°C, 28 days, second value of cell
[6] = purified peptides, CHO-K1 cells stably expressing hCRHR2, cAMP HTRF

CC[C@H](C)[C@H](NC(=O)[C@H](CCC(=O)O)NC(=O)[C@H](C)NC(=O)[C@H](CC(N)=O)NC(=O)[C@@H](NC(=O)[C@H](CCCCNC(=O)COCCOCCNC(=O)COCCOCCNC(=O)CC[C@H](NC(=O)CC[C@H](NC(=O)CCCCCCCCCCCCCCCCCCC(=O)O)C(=O)O)C(=O)O)NC(=O)[C@H](C)NC(=O)[C@H](CCC(N)=O)NC(=O)[C@H](CCC(=O)O)NC(=O)[C@H](CCCNC(=N)N)NC(=O)[C@H](C)NC(=O)[C@H](C)NC(=O)[C@H](CCCNC(=N)N)NC(=O)[C@H](C)NC(=O)[C@H](CCCNC(=N)N)NC(=O)[C@H](C)NC(=O)[C@H](CCC(N)=O)NC(=O)[C@H](CCC(=O)O)NC(=O)[C@H](CC(C)C)NC(=O)[C@H](CC(C)C)NC(=O)[C@@H](NC(=O)[C@H](CCC(N)=O)NC(=O)[C@H](CC(C)C)NC(=O)[C@H](CC(C)C)NC(=O)CNC(=O)[C@@H](NC(=O)[C@@H]1CCCN1C(=O)[C@@H](NC(=O)[C@H](CC(=O)O)NC(=O)[C@H](CC(C)C)NC(=O)[C@H](CO)NC(=O)[C@H](CC(C)C)NC(=O)[C@@H](NC(=O)[C@@H]1CCCN1)C(C)C)C(C)C)[C@@H](C)CC)[C@@H](C)CC)[C@@H](C)O)C(=O)N[C@@H](CC(C)C)C(=O)N[C@@H](C)C(=O)N[C@@H](CCC(=O)O)C(=O)N[C@H](C(N)=O)C(C)C [SEQ ID NO: 7] (H-PVLSLDVPIGLLQILLEQARARAAREQAK([AEEA-AEEA-γGlu-γGlu-C20 diacid])TNAEILAEV-NH2)
EC50 (hCRHR1; [4]): > 5000 nM | Chemical stability at pH 7.5 after 28 days at 40°C (% degradation) [1, 5]: -23% | Solubility pH 7.5, target conc. =10 mg/mL (measured mg/mL) [2]: 9.8 mg/mL | Selectivity ratio (hCRHR1/ hCRHR2) (hCRHR2; hCRHR1-EC50/hCRHR2-EC50): >2000 | EC50 (hCRHR2; [6]): 2.5 nM | Fibrillation (pH 7.5) ([3]; pH 7.5, ThT assay): No

CC[C@H](C)[C@H](N)C(=O)N[C@H](C(=O)N[C@@H](CC(C)C)C(=O)N[C@@H](CO)C(=O)N[C@@H](CC(C)C)C(=O)N[C@@H](CC(=O)O)C(=O)N[C@H](C(=O)N1CCC[C@H]1C(=O)N[C@H](C(=O)NCC(=O)N[C@@H](CC(C)C)C(=O)N[C@@H](CC(C)C)C(=O)N[C@@H](CCC(N)=O)C(=O)N[C@H](C(=O)N[C@@H](CC(C)C)C(=O)N[C@@H](CC(C)C)C(=O)N[C@@H](CCC(=O)O)C(=O)N[C@@H](CCC(N)=O)C(=O)N[C@@H](C)C(=O)N[C@@H](CCCNC(=N)N)C(=O)N[C@@H](C)C(=O)N[C@@H](CCCNC(=N)N)C(=O)N[C@@H](C)C(=O)N[C@@H](C)C(=O)N[C@@H](CCCNC(=N)N)C(=O)N[C@@H](CCC(=O)O)C(=O)N[C@@H](CCC(N)=O)C(=O)N[C@@H](C)C(=O)N[C@@H](CCCCNC(=O)COCCOCCNC(=O)COCCOCCNC(=O)CC[C@H](NC(=O)CC[C@H](NC(=O)CCCCCCCCCCCCCCCCCCC(=O)O)C(=O)O)C(=O)O)C(=O)N[C@H](C(=O)N[C@@H](CC(N)=O)C(=O)N[C@H](C(=O)N[C@@H](CCC(=O)O)C(=O)N[C@H](C(=O)N[C@@H](CC(C)C)C(=O)N[C@@H](C)C(=O)N[C@@H](CCC(=O)O)C(=O)N[C@H](C(N)=O)C(C)C)[C@@H](C)CC)[C@@H](C)CC)[C@@H](C)O)[C@@H](C)CC)[C@@H](C)CC)C(C)C)C(C)C [SEQ ID NO: 13] (H-IVLSLDVPIGLLQILLEQARARAAREQAK([AEEA-AEEA-γGlu-γGlu-C20 diacid])TNIEILAEV-NH2)
EC50 (hCRHR1; [4]): > 5000 nM | Chemical stability at pH 7.5 after 14 days at 40°C (% degradation) ([1]; pH 7.5, 40°C, 14 days, first value of cell): -0.3% | Chemical stability at pH 7.5 after 28 days at 40°C (% degradation) [1, 5]: -1.6% | Solubility pH 7.5, target conc. =10 mg/mL (measured mg/mL) [2]: 8.9 mg/mL | Selectivity ratio (hCRHR1/ hCRHR2) (hCRHR2; hCRHR1-EC50/hCRHR2-EC50): >926 | EC50 (hCRHR2; [6]): 5.4 nM | Fibrillation (pH 7.5) ([3]; pH 7.5, ThT assay): No

CCCC[C@H](NC(=O)[C@@H](NC(=O)[C@H](CCC(=O)O)NC(=O)[C@H](C)NC(=O)[C@H](CC(N)=O)NC(=O)C(C)(C)NC(=O)[C@H](CCCCNC(=O)COCCOCCNC(=O)COCCOCCNC(=O)CC[C@H](NC(=O)CC[C@H](NC(=O)CCCCCCCCCCCCCCCCCCC(=O)O)C(=O)O)C(=O)O)NC(=O)[C@H](C)NC(=O)[C@H](CCC(N)=O)NC(=O)[C@H](CCC(=O)O)NC(=O)[C@H](CCCNC(=N)N)NC(=O)[C@H](C)NC(=O)[C@H](C)NC(=O)[C@H](CCCNC(=N)N)NC(=O)[C@H](C)NC(=O)[C@H](CCCNC(=N)N)NC(=O)[C@H](C)NC(=O)[C@H](CCC(N)=O)NC(=O)[C@H](CCC(=O)O)NC(=O)[C@H](CC(C)C)NC(=O)[C@H](CC(C)C)NC(=O)[C@@H](NC(=O)[C@H](CCC(N)=O)NC(=O)[C@H](CC(C)C)NC(=O)[C@H](CC(C)C)NC(=O)CNC(=O)[C@@H](NC(=O)[C@@H]1CCCN1C(=O)[C@@H](NC(=O)[C@H](CC(=O)O)NC(=O)[C@H](CC(C)C)NC(=O)[C@H](CO)NC(=O)[C@H](CC(C)C)NC(=O)[C@@H](NC(=O)[C@@H](N)[C@@H](C)CC)C(C)C)C(C)C)[C@@H](C)CC)[C@@H](C)CC)[C@@H](C)CC)C(=O)N[C@@H](C)C(=O)N[C@@H](CCC(=O)O)C(=O)N[C@H](C(N)=O)[C@@H](C)CC [compound 236] (H-IVLSLDVPIGLLQILLEQARARAAREQAK([AEEA-AEEA-γGlu-γGlu-C20 diacid])[Aib]NAEI[Nle]AEI-NH2)
EC50 (hCRHR1; Table 5, purified peptides): > 5000 nM | Chemical stability at pH 7.5 after 14 days at 40°C (% degradation) ([1]; pH 7.5, 14 days, 40°C): -1% | Chemical stability at pH 7.5 after 28 days at 40°C (% degradation) ([1]; pH 7.5, 28 days, 40°C): -3% | Solubility pH 7.5, target conc. =10 mg/mL (measured mg/mL) [2]: 10 mg/mL | Selectivity ratio (hCRHR1/ hCRHR2) (hCRHR2; Table 5): >7463 | EC50 (hCRHR2; Table 5, purified peptides): 0.67 nM | Fibrillation (pH 7.5) ([3]; pH 7.5): No

— patent EP4810052A2, “HCRHR2 SELECTIVE POLYPEPTIDES” (Gubra A/S, priority 2023, dated 2026)
